For the test, the system named is L1210 leukemia ip in BDF1 mice, survival T/C. The test is described as follows: NCI In Vivo Anticancer Drug Screen. Data for tumor model L1210 Leukemia (intraperitoneal) in B6D2F1 (BDF1) mice. As to conditions: endpoint: mean survival time, higher = longer survival. The method, boiled down: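 Read-out is survival time, reported as the treated-group measurement over the vehicle-control measurement.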

Setting [1] is: dose: 50.0 mg/kg/injection, schedule: Q01DX009 (ip), vehicle: Klucel (hydroxypropylcellulose) (HPC).
The mark [2] stands for this setting: dose: 50.0 mg/kg/injection, schedule: Q01DX009 (ip), vehicle: saline.
[3] abbreviates: dose: 100.0 mg/kg/injection, schedule: Q01DX009 (ip), vehicle: saline with Tween-80.
Setting [4] is: dose: 200.0 mg/kg/injection, schedule: Q01DX009 (ip), vehicle: saline with Tween-80.
Where [5] appears, read: dose: 400.0 mg/kg/injection, schedule: Q01DX009 (ip), vehicle: saline with Tween-80.
Where [6] appears, read: dose: 100.0 mg/kg/injection, schedule: Q01DX009 (ip), vehicle: Klucel (hydroxypropylcellulose) (HPC).
[7] abbreviates: dose: 100.0 mg/kg/injection, schedule: Q04DX003 (ip), vehicle: Klucel (hydroxypropylcellulose) (HPC).
Where [8] appears, read: dose: 200.0 mg/kg/injection, schedule: Q01DX009 (ip), vehicle: Klucel (hydroxypropylcellulose) (HPC).
Setting [9] is: dose: 200.0 mg/kg/injection, schedule: Q04DX003 (ip), vehicle: Klucel (hydroxypropylcellulose) (HPC).
[10] abbreviates: dose: 100.0 mg/kg/injection, schedule: Q01DX009 (ip), vehicle: saline.
Where [11] appears, read: dose: 100.0 mg/kg/injection, schedule: Q01DX001 (ip), vehicle: saline.
Where [12] appears, read: dose: 100.0 mg/kg/injection, schedule: Q04DX003 (ip), vehicle: saline.
Where [13] appears, read: dose: 200.0 mg/kg/injection, schedule: Q01DX001 (ip), vehicle: saline.
[14] abbreviates: dose: 200.0 mg/kg/injection, schedule: Q04DX003 (ip), vehicle: saline.
Setting [15] is: dose: 400.0 mg/kg/injection, schedule: Q01DX001 (ip), vehicle: saline.
[16] abbreviates: dose: 400.0 mg/kg/injection, schedule: Q04DX003 (ip), vehicle: saline.
[17] abbreviates: dose: 200.0 mg/kg/injection, schedule: Q01DX009 (ip), vehicle: saline.
[18] abbreviates: dose: 400.0 mg/kg/injection, schedule: Q01DX009 (ip), vehicle: saline.

Several values for one entry are separate records, joined by “and”; a condition that tells them apart may be missing. Identical values can stand only once. Inconclusive results and toxic doses are left out.

Consider `CCN(C)N=Nc1cccnc1`, for which the T/C is 101 % of control (dose: 10.0 mg/kg/injection, schedule: Q01DX009 (ip), vehicle: saline); 107 % of control (dose: 15.0 mg/kg/injection, schedule: Q01DX009 (ip), vehicle: saline); 111 % of control (dose: 22.0 mg/kg/injection, schedule: Q01DX009 (ip), vehicle: Klucel (hydroxypropylcellulose) (HPC)); 110 % of control (dose: 22.0 mg/kg/injection, schedule: Q01DX009 (ip), vehicle: saline with Tween-80); 112 % of control (dose: 22.0 mg/kg/injection, schedule: Q01DX009 (ip), vehicle: saline); 108 % of control (dose: 33.0 mg/kg/injection, schedule: Q01DX009 (ip), vehicle: Klucel (hydroxypropylcellulose) (HPC)). For the same molecule, the T/C is 122 % of control (dose: 33.0 mg/kg/injection, schedule: Q01DX009 (ip), vehicle: saline with Tween-80); 152 % of control (dose: 33.0 mg/kg/injection, schedule: Q01DX009 (ip), vehicle: saline); 108 % of control under setting [1]; 170 % of control under setting [2]; 150 % of control (dose: 75.0 mg/kg/injection, schedule: Q01DX009 (ip), vehicle: Klucel (hydroxypropylcellulose) (HPC)); 122 % of control (dose: 75.0 mg/kg/injection, schedule: Q01DX009 (ip), vehicle: saline with Tween-80).

For `Cc1ccc(S(=O)(=O)NCC(=O)NCC(=O)Oc2c(Cl)c(Cl)c(Cl)c(Cl)c2Cl)cc1`, the T/C reads like this: (dose: 100.0 mg/kg/injection, schedule: Q01DX001 (ip), vehicle: water) 95 % of control; (dose: 200.0 mg/kg/injection, schedule: Q01DX001 (ip), vehicle: water) 96 % of control; (dose: 400.0 mg/kg/injection, schedule: Q01DX001 (ip), vehicle: water) 95 % of control.

`Cc1ccc(CC(=O)O)cc1C`: the T/C under setting [3] is 101 % of control, the T/C under setting [4] was 104 % of control and the T/C under setting [5] is 102 % of control.

As to `Nc1sc(=S)nc2[nH]ncc12`, the T/C was 90 % of control under setting [1]; 96 % of control under setting [6]; 98 % of control under setting [7]; 93 % of control under setting [8]; 95 % of control under setting [9]; 95 % of control (dose: 400.0 mg/kg/injection, schedule: Q04DX003 (ip), vehicle: Klucel (hydroxypropylcellulose) (HPC)).

Regarding `CC1(C)N=C(N)N=C(N)N1c1ccc(OCC(=O)N2CCOCC2)cc1`, the T/C reads like this: (dose: 12.5 mg/kg/injection, schedule: Q01DX009 (ip), vehicle: saline) 106 % of control; (dose: 25.0 mg/kg/injection, schedule: Q01DX009 (ip), vehicle: saline) 102 % of control; under setting [2], 95 % of control; under setting [10], 96 % of control.

Consider `Nc1nc(N)nc(SCCOCCSc2nc(N)nc(N)n2)n1`, for which the T/C was 103 % of control under setting [3], 94 % of control under setting [4] and 92 % of control under setting [5].

As to `COC(=O)C[N+]12CN3CN(CN(C3)C1)C2`, the T/C was 98 % of control (dose: 50.0 mg/kg/injection, schedule: Q01DX001 (ip), vehicle: saline); 100 % of control under setting [11]; 107 % of control under setting [12]; 96 % of control under setting [13]; 107 % of control under setting [14]; 107 % of control under setting [15]. The T/C under setting [16] is 108 % of control.

`CC(=O)OC1(C)CC(C)C(O)C(C(O)CC2CC(=O)NC(=O)C2)C1` (stereo not drawn): the T/C runs as follows: (dose: 5.0 mg/kg/injection, schedule: Q01DX001 (ip), vehicle: water) 98 % of control; (dose: 10.0 mg/kg/injection, schedule: Q01DX001 (ip), vehicle: water) 107 % of control; (dose: 20.0 mg/kg/injection, schedule: Q01DX001 (ip), vehicle: water) 112 % of control.

As to `CN(CCC#N)c1ccc(/C=C(\C#N)C(N)=O)cc1`, the T/C runs as follows: (dose: 100.0 mg/kg/injection, schedule: Q01DX001 (ip), vehicle: saline with Tween-80) 102 % of control; (dose: 100.0 mg/kg/injection, schedule: Q04DX003 (ip), vehicle: saline with Tween-80) 92 % of control and 93 % of control; (dose: 200.0 mg/kg/injection, schedule: Q01DX001 (ip), vehicle: saline with Tween-80) 102 % of control; (dose: 200.0 mg/kg/injection, schedule: Q04DX003 (ip), vehicle: saline with Tween-80) 100 % of control and 90 % of control; (dose: 400.0 mg/kg/injection, schedule: Q01DX001 (ip), vehicle: saline with Tween-80) 89 % of control; (dose: 400.0 mg/kg/injection, schedule: Q04DX003 (ip), vehicle: saline with Tween-80) 98 % of control and 90 % of control.

For the molecule `COc1ccc(/C=C(\SS/C(=C/c2ccc(OC)cc2)C(=O)O)C(=O)O)cc1`, the T/C under setting [11] was 89 % of control and the T/C under setting [13] is 94 % of control.

As to `COC(=O)C1(Br)CCC1(Br)C(=O)OC` (stereo not drawn), the T/C is 100 % of control under setting [10]; 93 % of control under setting [12]; 100 % of control under setting [17]; 100 % of control under setting [14]; 98 % of control under setting [18]; 102 % of control under setting [16].

As to `CCCCCCCCCCCC(=O)Nc1ccc(N(C)C(C)=O)cc1`, the T/C was 90 % of control under setting [6]; 89 % of control (dose: 100.0 mg/kg/injection, schedule: Q04DX002 (ip), vehicle: Klucel (hydroxypropylcellulose) (HPC)); 95 % of control under setting [8]; 100 % of control (dose: 200.0 mg/kg/injection, schedule: Q04DX002 (ip), vehicle: Klucel (hydroxypropylcellulose) (HPC)); 97 % of control (dose: 400.0 mg/kg/injection, schedule: Q01DX009 (ip), vehicle: Klucel (hydroxypropylcellulose) (HPC)); 100 % of control (dose: 400.0 mg/kg/injection, schedule: Q04DX002 (ip), vehicle: Klucel (hydroxypropylcellulose) (HPC)).

`C[N+](C)(C)CC1COCCO1` (stereo not drawn): the T/C (dose: 5.0 mg/kg/injection, schedule: Q01DX001 (ip), vehicle: saline) was 105 % of control.

As to `Clc1ccc(-c2coc3cccc[n+]23)cc1`, the T/C reads like this: (dose: 75.0 mg/kg/injection, schedule: Q01DX001 (ip), vehicle: other) 100 % of control; (dose: 150.0 mg/kg/injection, schedule: Q01DX001 (ip), vehicle: other) 97 % of control; (dose: 300.0 mg/kg/injection, schedule: Q01DX001 (ip), vehicle: other) 97 % of control.

With `CCCCN=C=NCCC[N+](C)(C)C`, the T/C is 98 % of control under setting [7] and 107 % of control under setting [9].

With `Cc1c(Cl)c(C)c(Cl)c(Cl)c1Cl`, the T/C was 106 % of control under setting [11]; 101 % of control under setting [10]; 89 % of control under setting [12]; 98 % of control under setting [13]; 108 % of control under setting [17]; 87 % of control under setting [14]. In addition, the T/C was 96 % of control under setting [15], 94 % of control under setting [18] and 94 % of control under setting [16].

Regarding `OCC12NC(=S)OC1C(O)C(O)CO2` (stereo not drawn), the T/C runs as follows: (dose: 50.0 mg/kg/injection, schedule: Q01DX009 (ip), vehicle: saline with Tween-80) 104 % of control; under setting [3], 104 % of control; under setting [4], 104 % of control.

For `COc1ccc([N+](=O)[O-])cc1NC(=O)Nc1ccc(Nc2ccccc2)cc1`, the T/C is 97 % of control under setting [1], 94 % of control under setting [6] and 90 % of control under setting [8].

Consider `CN(C)C(=S)Oc1ccc(S(=O)(=O)F)c(Cl)c1Cl`, for which the T/C (dose: 25.0 mg/kg/injection, schedule: Q04DX002 (ip), vehicle: saline with Tween-80) is 92 % of control; the T/C (dose: 50.0 mg/kg/injection, schedule: Q04DX002 (ip), vehicle: saline with Tween-80) was 92 % of control; the T/C (dose: 100.0 mg/kg/injection, schedule: Q04DX002 (ip), vehicle: saline with Tween-80) is 86 % of control.

Take `CC(C)CNC(=O)CCCc1ccc(N(CCCl)CCCl)cc1`: the T/C is 110 % of control (dose: 4.0 mg/kg/injection, schedule: Q12HX018 (ip), vehicle: other); 95 % of control (dose: 6.0 mg/kg/injection, schedule: Q12HX018 (ip), vehicle: other); 112 % of control (dose: 8.0 mg/kg/injection, schedule: Q12HX018 (ip), vehicle: other).
